Experimental data taken from patent US6174858A, “Conjugates useful in the treatment of prostate cancer” (Merck & Co., Inc., priority 1998, dated 2001).
Where two headings read alike, the source gives them in different places. Square brackets hold non-standard residues; d marks the D form. dAc‑VIN = 4-desacetylvinblastine; Chg = N[C@H](C(=O)O)C1CCCCC1

How the values were obtained:
Colo320DM cells = experiment: In vitro cytotoxicity, Alamar Blue assay, Colo320DM control cell line (does not express free PSA); assay type: cell-based
Experimental: (§1) In vitro Assay of Cytotoxicity of Peptidyl Derivatives of Vinca Drugs
(§2) The cytotoxicities of the cleaveable oligopeptide-vinca drug conjugates, prepared as described in Example 3, against a line of cells which is known to be killed by unmodified vinca drug was assessed with an Alamar Blue assay. Specifically, cell cultures of LNCap prostate tumor cells, Colo32ODM cells (designated C320) or T47D cells in 96 well plates was diluted with medium containing various concentrations of a given conjugate (final plate well volume of 200 μl). […] The cells were incubated for 3 days at 37° C., 20 μl of Alamar Blue is added to the assay well. The cells were further incubated and the assay plates were read on a EL-310 ELISA reader at the dual wavelengths of 570 and 600 nm at 4 and 7 hours after addition of Alamar Blue. Relative percentage viability at the various concentration of conjugate tested was then calculated versus control (no conjugate) cultures and an EC50 was determined. Unless otherwise indicated, the acetate salt of the conjugate was tested.

[1] = tested on: LNCaP prostate tumor cells; experiment: In vitro cytotoxicity, Alamar Blue assay, LNCaP cell kill; assay type: cell-based
Experimental: as §1
as §2, with “Specifically,” for “The cytotoxicities of the cleaveable oligopeptide-vinca drug conjugates, prepared as described in Example 3, against a line of cells which is known to be killed by unmodified vinca drug was assessed with an Alamar Blue assay. Specifically,”

free PSA (York PSA) = biological target: T1, free PSA (York PSA) (Homo sapiens, UniProt P07288); experiment: Recognition of oligopeptide-vinca drug conjugates by free PSA (time to 50% cleavage, HPLC); assay type: biochemical; conditions: for Time to 50% Substrate Cleavage by York PSA: conjugate to PSA molar ratio 100 to 1, pH 7.4
T1 construct: purchased York ('York PSA')
Experimental: The reaction was quenched after various reaction times by the addition of trifluoroacetic acid (TFA) to a final 1% (volume/volume). Alternatively the reaction is quenched with 10 mM ZnCl2. The quenched reaction was analyzed by HPLC on a reversed-phase C18 column using an aqueous 0.1%TFA/acetonitrile gradient. The amount of time (in minutes) required for 50% cleavage of the noted oligopeptide-cytotoxic agent conjugates with enzymatically active free PSA were then calculated.

[2] = 72 HRS, second part of Table 2, read-out: Colo320DM EC 50
[3] = 72 HRS, second part of Table 2, read-out: LNCaP Cell Kill in 72 HRS. {48 HRS} EC 50
[4] = 72 HRS, read-out: Colo320DM EC 50
[5] = 72 HRS, read-out: LNCaP Cell Kill in 72 HRS. {48 HRS} EC 50

T1 sequence (P07288 25-261): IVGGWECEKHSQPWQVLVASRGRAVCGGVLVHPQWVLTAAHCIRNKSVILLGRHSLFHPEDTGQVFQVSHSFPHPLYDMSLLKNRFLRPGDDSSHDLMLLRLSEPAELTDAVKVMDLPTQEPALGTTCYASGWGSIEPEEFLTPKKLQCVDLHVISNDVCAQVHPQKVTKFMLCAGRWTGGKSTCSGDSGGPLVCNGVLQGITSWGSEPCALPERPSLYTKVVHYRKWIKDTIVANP

Row | Compound | EC50 (Colo320DM cells; [2]) | EC50 [1, 3] | Time to 50% Substrate Cleavage by York PSA (free PSA (York PSA)) | EC50 (Colo320DM cells; [4]) | EC50 [1, 5] | also measured
1 | CCC1(O)CC2CN(CCc3c([nH]c4ccccc34)C(C(=O)OC)(c3cc4c(cc3OC)N(C)C3C(O)(C(=O)OC)C(OC(=O)C(C)NC)C5(CC)C=CCN6CCC43C65)C2)C1 (stereo not shown) [4-O-[N-Me-dA]-dAc-VIN] | 1.7 µM | 1 µM |  |  |  | 
2 | 4-O-[Ac-4-trans-L-HypSSChg(dQ)SSP]-dAc-VIN: peptide-vinca drug conjugate, SEQ ID NO 114 (XSSXXSSP; N-acetyl; D-Gln; desacetylvinblastine conjugate) | 43.7 µM | 12.2 µM |  |  |  | Substrate cleavage by York PSA, 10 X ENZ o/n (free PSA (York PSA); 10 X ENZ, o/n): 0%
3 | des-Acetylvinblastine-4-O-(N-Acetyl-4-trans-L-Hyp-Ser-Ser Chg-Gln-Ser-Ser-Pro) ester acetate (XSSXQSSP; N-acetyl; desacetylvinblastine ester; acetate salt) |  |  | 17 min | 12 µM | 3 µM | 
4 | 4-O-(Ac-4-trans-L-HypSSChgQ-SS-4-trans-L-Hyp)-dAc-VIN: peptide-vinca drug conjugate, SEQ ID NO 95 (XSSXQSSX; N-acetyl; desacetylvinblastine conjugate) |  |  | 13 min | 13.1 µM | 16.3 µM | 
5 | 4-O-(Ac-3-Pal-SSChgQS-P)-dAc-VIN: peptide-vinca drug conjugate, SEQ ID NO 92 |  |  | 80 min | 8 µM | 5.8 µM | 
6 | 4-O-[Ac-4-trans-L-HypSSChgQSS-Pip]-dAc-VIN: peptide-vinca drug conjugate, SEQ ID NO 124 (XSSXQSSX; N-acetyl; desacetylvinblastine conjugate) | 60 µM | 7.5 µM | 13 min |  |  | 
7 | Ac-AbuSSChgQ-SS-(4-O-P)-dAc-VIN: peptide-vinca drug conjugate, SEQ ID NO 109 in Table 1, 108 in Table 2 (XSSXQSSP; N-acetyl; desacetylvinblastine conjugate) | 28.4 µM | 12.8 µM | 7 min |  |  | 
8 | CCC1(O)CC2CN(CCc3c([nH]c4ccccc34)C(C(=O)OC)(c3cc4c(cc3OC)N(C)C3C(O)(C(=O)OC)C(OC(=O)C(N)Cc5ccccc5)C5(CC)C=CCN6CCC43C65)C2)C1 (stereo not shown) [(4-O-Phe)-(dAc)-VIN] | 2.2 µM | 3.8 µM |  |  |  | 
9 | 4-O-(Ac-4-trans-L-HypSSChgQSV-glycolyl)-VIN: peptide-vinca drug conjugate, SEQ ID NO 88 (XSSXQSV; N-acetyl; glycolyl linker; vinblastine conjugate) |  |  | 8 min | 8.1 µM | 4.1 µM | 
10 | CCC1(O)CC2CN(CCc3c([nH]c4ccccc34)C(C(=O)OC)(c3cc4c(cc3OC)N(C)C3C(O)(C(=O)OC)C(OC(=O)C5CCCN5)C5(CC)C=CCN6CCC43C65)C2)C1 (stereo not shown) [4-O-(prolyl)-dAc-VIN, 4-des- Acetylvinblastine 4-O-(Prolyl) ester] | 4.1 µM | 0.7 µM |  |  |  | 
11 | CCC1(O)CC2CN(CCc3c([nH]c4ccccc34)C(C(=O)OC)(c3cc4c(cc3OC)N(C)C3C(O)(C(=O)OC)C(OC(=O)CO)C5(CC)C=CCN6CCC43C65)C2)C1 (stereo not shown) [4-hydroxyacetyl-VIN] | 3.3 µM | 1.3 µM |  |  |  | 
12 | CC[C@]1(O)C[C@H]2CN(CCc3c([nH]c4ccccc34)[C@@](C(=O)OC)(c3cc4c(cc3OC)N(C)[C@H]3[C@@](O)(C(=O)OC)[C@H](OC(=O)[C@@H](N)CC(C)C)[C@]5(CC)C=CCN6CC[C@]43[C@@H]65)C2)C1 [4-O-leucyl-(dAc)-VIN] | 4.5 µM | 4.5 µM |  |  |  | 
13 | CCC1(O)CC2CN(CCc3c([nH]c4ccccc34)C(C(=O)OC)(c3cc4c(cc3OC)N(C)C3C(O)(C(=O)OC)C(OC(=O)C5CCCN5C(=O)C(CO)NC(=O)C(N)CO)C5(CC)C=CCN6CCC43C65)C2)C1 (stereo not shown) [4-O-(SSP)-dAc-VIN] | 14.5 µM | 2 µM |  |  |  | 
14 | CC[C@]1(O)C[C@@H]2CN(CCc3c([nH]c4ccccc34)[C@@](C(=O)OC)(c3cc4c(cc3OC)N(C)[C@H]3[C@@](O)(C(=O)OC)[C@H](OC(=O)CN)[C@]5(CC)C=CCN6CC[C@]43[C@@H]65)C2)C1 [4-O-glycine-(dAc)-VIN] |  |  |  | 1.8 µM | 0.3 µM | 
15 | CCC1(O)CC2CN(CCc3c([nH]c4ccccc34)C(C(=O)OC)(c3cc4c(cc3OC)N(C)C3C(O)(C(=O)OC)C(OC(=O)C5CCCCN5)C5(CC)C=CCN6CCC43C65)C2)C1 (stereo not shown) [4-O-pipecolyl-dAc-VIN] | 0.7 µM | 0.7 µM |  |  |  | 
16 | CCC1(O)CC2CN(CCc3c([nH]c4ccccc34)C(C(=O)OC)(c3cc4c(cc3OC)N(C)C3C(O)(C(=O)OC)C(OC(=O)C5CC(O)CN5)C5(CC)C=CCN6CCC43C65)C2)C1 [(4-O-4-trans-L-Hyp)-dAc-VIN] |  |  |  | 1.1 µM | 0.6 µM | 
17 | 4-O-(Ac-SSChgQS-Gly)-(dAc)-VIN: peptide-vinca drug conjugate, SEQ ID NO 98 (Ac-SS[Chg]QSG-{dAc‑VIN}; also: C-terminal ester to 4-OH of desacetylvinblastine) |  |  | 55 min | 16.3 µM | 16.3 µM | 
18 | 4-O-(Ac-SChgQ-SSP)-dAc-VIN: peptide-vinca drug conjugate, SEQ ID NO 116 (XXQSSP; N-acetyl; desacetylvinblastine conjugate) | 20 µM | 15 µM | 15 min |  |  | 
19 | 4-O-(Ac-4-trans-L-HypSSChgQ-S-P)-dAc-VIN: peptide-vinca drug conjugate, SEQ ID NO 96 (XSSXQSP; N-acetyl; desacetylvinblastine conjugate) |  |  |  | 83.9 µM | 47.9 µM | Substrate cleavage by York PSA after 1 HOUR (free PSA (York PSA); 1 HOUR): 8%; EC50 (Colo320DM cells; in 5% FBS, read-out: Colo320DM EC 50 in 5% FBS): 26 µM; EC50 ([1]; in 5% FBS, read-out: LNCaP Cell Kill EC 50 in 5% FBS): > 16 µM
20 | CC[C@]1(O)C[C@H]2CN(CCc3c([nH]c4ccccc34)[C@@](C(=O)OC)(c3cc4c(cc3OC)N(C)[C@H]3[C@@](O)(C(=O)OC)[C@H](OC(=O)CNC)[C@]5(CC)C=CCN6CC[C@]43[C@@H]65)C2)C1 [4-O-sarcosyl-(dAc)-VIN] |  |  |  | 1.8 µM | 1.3 µM | 
21 | CCC1(O)CC2CN(CCc3c([nH]c4ccccc34)C(C(=O)OC)(c3cc4c(cc3OC)N(C)C3C(O)(C(=O)OC)C(OC(=O)C5CCCN5C(=O)C(N)CO)C5(CC)C=CCN6CCC43C65)C2)C1 (stereo not shown) [4-O-(SP)-dAc-VIN] | 0.3 µM | 0.1 µM |  |  |  | 
22 | CCC1(O)CC2CN(CCc3c([nH]c4ccccc34)C(C(=O)OC)(c3cc4c(cc3OC)N(C)C3C(O)(C(=O)OC)C(OC(=O)C5CCCN5)C5(CC)C=CCN6CCC43C65)C2)C1 (stereo not shown) [4-O-(d)-prolyl-(dAc)-VIN ester] | 4.1 µM | 2 µM |  |  |  | 
23 | CCC(N)C(=O)OC1C2(CC)C=CCN3CCC4(c5cc(C6(C(=O)OC)CC7CN(CCc8c6[nH]c6ccccc86)CC(O)(CC)C7)c(OC)cc5N(C)C4C1(O)C(=O)OC)C32 (racemic) [4-O-Abu-(dAc)-VIN, racemic mixture] | 5.5 µM | 3.8 µM |  |  |  | 
24 | CC[C@]1(O)C[C@@H]2CN(CCc3c([nH]c4ccccc34)[C@@](C(=O)OC)(c3cc4c(cc3OC)N(C)[C@H]3[C@@](O)(C(=O)OC)[C@H](OC(C)=O)[C@]5(CC)C=CCN6CC[C@]43[C@@H]65)C2)C1 [VINBLASTINE, vinblastine, reference compound] |  |  |  |  |  | EC50 (Colo320DM cells; Homo sapiens, COLO 320DM, 72 HRS, read-out: Colo320DM EC 50): 0.5 µM; EC50 ([1]; Homo sapiens, 72 HRS, read-out: LNCaP Cell Kill in 72 HRS. {48 HRS} EC 50): 0.5 µM
25 | CCC1(O)CC2CN(CCc3c([nH]c4ccccc34)C(C(=O)OC)(c3cc4c(cc3OC)N(C)C3C(O)(C(=O)OC)C(OC(=O)C(C)N)C5(CC)C=CCN6CCC43C65)C2)C1 (stereo not shown) [(4-O-Ala)-(dAc)-VIN] | 4.2 µM | 0.6 µM |  |  |  | 
26 | CCC(N)C(=O)O[C@@H]1[C@]2(CC)C=CCN3CC[C@@]4(c5cc([C@@]6(C(=O)OC)C[C@@H]7CN(CCc8c6[nH]c6ccccc86)C[C@](O)(CC)C7)c(OC)cc5N(C)[C@H]4[C@@]1(O)C(=O)OC)[C@@H]32 (stereo partly shown) [4-O-Abu-(dAc)-VIN, I isoform] | 2.3 µM | 3.9 µM |  |  |  | 
